Measurements as given in patent US20040147574A1, “Isothiazole derivatives” (Pfizer Inc, priority 2003, published 2004).

What follows are compounds tested against T1, TβRII kinase (Homo sapiens, UniProt P37173) (assay: TGF-β Type II Receptor (TβRII) kinase assay: phosphorylation of myelin basic protein). Conditions: GST-TβRII 27 nanomolar, MBP 3 micromolar, ATP 0.25 micromolar, 90 minutes at room temperature.
T1 construct: cytoplasmic domain of TβRII-amino acids 193-567 with A to V change at 438
T1 sequence (P37173 193-567): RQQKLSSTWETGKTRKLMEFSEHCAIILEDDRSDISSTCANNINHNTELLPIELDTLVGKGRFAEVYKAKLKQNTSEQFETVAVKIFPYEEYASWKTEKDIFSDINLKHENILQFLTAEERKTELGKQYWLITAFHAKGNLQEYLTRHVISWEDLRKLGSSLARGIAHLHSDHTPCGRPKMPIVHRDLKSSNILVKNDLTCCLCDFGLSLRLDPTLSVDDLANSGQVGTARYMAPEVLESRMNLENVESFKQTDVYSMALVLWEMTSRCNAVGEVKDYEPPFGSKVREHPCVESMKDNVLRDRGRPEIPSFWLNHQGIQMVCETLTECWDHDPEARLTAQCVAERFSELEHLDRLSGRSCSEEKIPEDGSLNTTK
Format: biochemical
Procedure: Phosphorylation of myelin basic protein (MBP) by the TβRII kinase was measured as follows: 80 microliters of MBP (Upstate Biotechnology #13-104) diluted in kinase reaction buffer (KRB) containing 50 mM MOPS, 5 mM MgCl2, pH 7.2 to yield a final concentration of 3 micromolar MBP was added to each well of a Millipore 96-well multiscreen-DP 0.65 micron filtration plate (#MADPNOB50). 20 microliters of inhibitor diluted in KRB was added to appropriate wells to yield the desired final concentration (10-0.03 micromolar). 10 microliters of a mixture of ATP (Sigma #A-5394) and ^33P-ATP (Perkin Elmer #NEG/602H) diluted in KRB was added to yield a final concentration of 0.25 micromolar ATP and 0.02 microcuries of ^33P-ATP per well. 10 microliters of a GST-TβRII fusion protein (glutathione S-transferase at the N-terminal end of the cytoplasmic domain of TβRII-amino acids 193-567 with A to V change at 438) diluted in KRB was added to each well to yield a final concentration of 27 nanomolar GST-TβRII. Plates were mixed and incubated for 90 minutes at room temperature. After the reaction incubation, 100 microliters of cold 20% trichloroacetic acid (Aldrich #25,139-9) was added per well and plates were mixed and incubated for 60 minutes at 4° C. Liquid was then removed from the wells using a Millipore vacuum manifold. Plates were washed once with 200 microliters per well of cold 10% trichloroacetic acid followed by two washes with 100 microliters per well of cold 10% trichloroacetic acid. Plates were allowed to dry overnight at room temperature. 20 microliters of Wallac OptiPhase SuperMix scintillation cocktail was added to each well. Plates were sealed and counted using a Wallac 1450 Microbeta liquid scintillation counter. The potency of inhibitors was determined by their ability to reduce TβRII-mediated phosphorylation of the MBP substrate.

| SMILES | IC50 [nM] |
| --- | --- |
| COc1cccc(OC)c1CNC(=O)Nc1snc(OC(C)c2cccnc2)c1C(N)=O (stereo not drawn) [Example 26, 5-[3-(2,6-Dimethoxy-benzyl)-ureido]-3-(1-pyridin-3-yl-ethoxy)-isothiazole-4-carboxylic acid amide] | 502 |
| CCN(CC)CCNC(=O)Nc1snc(OCc2cccnc2)c1C(N)=O [Example 17, 5-[3-(2-Diethylamino-ethyl)-ureido]-3-(pyridin-3-ylmethoxy)-isothiazole-4-carboxylic acid amide] | 1940 |
| CC(Oc1nsc(NC(=O)NCc2ccccn2)c1C(N)=O)c1cccnc1 (stereo not drawn) [Example 25, 3-(1-Pyridin-3-yl-ethoxy)-5-(3-pyridin-2-ylmethyl-ureido)-isothiazole-4-carboxylic acid amide] | 7390 |
| CNC(=O)Nc1snc(OC(C)c2cccnc2)c1C(N)=O (stereo not drawn) [Example 27, 5-(3-Methyl-ureido)-3-(1-pyridin-3-yl-ethoxy)-isothiazole-4-carboxylic acid amide] | 710 |
| CN1CCCC1CCNC(=O)Nc1snc(OCc2cccnc2)c1C(N)=O (stereo not drawn) [Example 19, 5-{3-[2-(1-Methyl-pyrrolidin-2-yl)-ethyl]-ureido}-3-(pyridin-3-ylmethoxy)-isothiazole-4-carboxylic acid amide] | 457 |
| NC(=O)c1c(OCc2cccnc2)nsc1NC(=O)NCCC1=CCCCC1 [Example 3, 5-[3-(2-Cyclohex-1-enyl-ethyl)-ureido]-3-(pyridin-3-ylmethoxy)-isothiazole-4-carboxylic acid amide] | 1610 |
| CCC(O)CNC(=O)Nc1snc(OCc2cccnc2)c1C(N)=O (stereo not drawn) [Example 24, 5-[3-(2-Hydroxy-butyl)-ureido]-3-(pyridin-3-ylmethoxy)-isothiazole-4-carboxylic acid amide] | 669 |
| NC(=O)c1c(OCc2cccnc2)nsc1NC(=O)NC[C@H]1CCCCCC[C@H]1O [Example 22, (R),(R)-5-[3-(2-Hydroxy-cyclooctylmethyl)-ureido]-3-(pyridin-3-ylmethoxy)-isothiazole-4-carboxylic acid amide] | 753 |
| NC(=O)c1c(OCc2cccnc2)nsc1NC(=O)NCCO [Example 23, 5-[3-(2-Hydroxy-ethyl)-ureido]-3-(pyridin-3-ylmethoxy)-isothiazole-4-carboxylic acid amide] | 349 |
| NC(=O)c1c(OCc2cccnc2)nsc1NC(=O)NCCCN1CCOCC1 [Example 15, 5-[3-(3-Morpholin-4-yl-propyl)-ureido]-3-(pyridin-3-ylmethoxy)-isothiazole-4-carboxylic acid amide] | 437 |
| NC(=O)c1c(OCc2cccnc2)nsc1NC(=O)NC[C@H]1CCCCC[C@H]1O [Example 21, (R),(R)-5-[3-(2-Hydroxy-cycloheptylmethyl)-ureido]-3-(pyridin-3-ylmethoxy)-isothiazole-4-carboxylic acid amide] | 759 |
| NC(=O)c1c(OCc2cccnc2)nsc1NC(=O)NCCN1CCOCC1 [Example 16, 5-[3-(2-Morpholin-4-yl-ethyl)-ureido]-3-(pyridin-3-ylmethoxy)-isothiazole-4-carboxylic acid amide] | 855 |
| CC1CCCCN1CCCNC(=O)Nc1snc(OCc2cccnc2)c1C(N)=O (stereo not drawn) [Example 20, 5-{3-[3-(2-Methyl-piperidin-1-yl)-propyl]-ureido}-3-(pyridin-3-ylmethoxy)-isothiazole-4-carboxylic acid amide] | 966 |

More lines, now with the values ahead:

| IC50 [nM] | SMILES |
| --- | --- |
| 2260 | NC(=O)c1c(OCc2cccnc2)nsc1NC(=O)NCCc1cccc(Cl)c1 [Example 9, 5-{3-[2-(3-Chloro-phenyl)-ethyl]-ureido}-3-(pyridin-3-ylmethoxy)-isothiazole-4-carboxylic acid amide] |
| 2990 | NC(=O)c1c(OCc2cccnc2)nsc1NC(=O)NCCc1ccccc1Cl [Example 11, 5-{3-[2-(2-Chloro-phenyl)-ethyl]-ureido}-3-(pyridin-3-ylmethoxy)-isothiazole-4-carboxylic acid amide] |
| 551 | CCOc1ccc(CCNC(=O)Nc2snc(OCc3cccnc3)c2C(N)=O)cc1OC [Example 14, 5-{3-[2-(4-Ethoxy-3-methoxy-phenyl)-ethyl]-ureido}-3-(pyridin-3-ylmethoxy)-isothiazole-4-carboxylic acid amide] |
| 1970 | CCOc1cc(CCNC(=O)Nc2snc(OCc3cccnc3)c2C(N)=O)ccc1OC [Example 8, 5-{3-[2-(3-Ethoxy-4-methoxy-phenyl)-ethyl]-ureido}-3-(pyridin-3-ylmethoxy)-isothiazole-4-carboxylic acid amide] |
| 1600 | Cc1ccc(C)c(CNC(=O)Nc2snc(OCc3cccnc3)c2C(N)=O)c1 [Example 4, 5-[3-(2,5-Dimethyl-benzyl)-ureido]-3-(pyridin-3-ylmethoxy)-isothiazole-4-carboxylic acid amide] |
| 2120 | COc1cccc(CCNC(=O)Nc2snc(OCc3cccnc3)c2C(N)=O)c1 [Example 10, 5-{3-[2-(3-Methoxy-phenyl)-ethyl]-ureido}-3-(pyridin-3-ylmethoxy)-isothiazole-4-carboxylic acid amide] |
| 3120 | NC(=O)c1c(OCc2cccnc2)nsc1NC(=O)NCCc1ccccc1F [Example 12, 5-{3-[2-(2-Fluoro-phenyl)-ethyl]-ureido}-3-(pyridin-3-ylmethoxy)-isothiazole-4-carboxylic acid amide] |
| 1480 | NC(=O)c1c(OCc2cccnc2)nsc1NC(=O)NCCc1cccc(F)c1 [Example 13, 5-{3-[2-(3-Fluoro-phenyl)-ethyl]-ureido}-3-(pyridin-3-ylmethoxy)-isothiazole-4-carboxylic acid amide] |
| 754 | COc1ccc(CCNC(=O)Nc2snc(OCc3cccnc3)c2C(N)=O)cc1OC [Example 6, 5-{3-[2-(3,4-Dimethoxy-phenyl)-ethyl]-ureido}-3-(pyridin-3-ylmethoxy)-isothiazole-4-carboxylic acid amide] |
| 940 | NC(=O)c1c(OCc2cccnc2)nsc1NC(=O)NCCc1ccccc1 [Example 7, 5-(3-Phenethyl-ureido)-3-(pyridin-3-ylmethoxy)-isothiazole-4-carboxylic acid amide] |
| 801 | CN(C)CCCNC(=O)Nc1snc(OCc2cccnc2)c1C(N)=O [Example 18, 5-[3-(3-Dimethylamino-propyl)-ureido]-3-(pyridin-3-ylmethoxy)-isothiazole-4-carboxylic acid amide] |
